Test results taken from PMC12655527, “An Investigational Study on the Role of ADME Agents’ Genetic Variation on DD217 Pharmacokinetics and Safety Profile” (Pharmaceuticals, 2025).

Assays:
[1] = tested on: patients undergoing knee replacement surgery; experiment: Thromboembolic complications (DVT/PE) during 14-day therapy, phase II trial; type: in vivo, human; details: for With DVT/PE / Without DVT/PE: 40 mg/day, number of patients; for cases of DVT/PE / PE/DVT, n (safety outcomes): 14 days
Description: The design, eligibility criteria, and outcomes of the phase II clinical trial evaluating the safety and tolerability of DD217 (NCT05189002, ClinicalTrials.gov) have been described previously. Briefly, this was a multicenter, double-blind, randomized, prospective phase II study designed to determine the optimal dosing regimen and to assess the safety and efficacy of DD217 for the prevention of venous thromboembolism (VTE) in patients undergoing knee replacement surgery. Patients were randomized into one of three groups: two groups received oral DD217 at doses of 40 mg or 60 mg once daily, starting on the morning of the first postoperative day, and one group received the active comparator, dalteparin sodium. The treatment duration was 14 days.
In total, seven cases of DVT/PE were documented during the trial: four in the DD217 40 mg/day group, one in the DD217 60 mg/day group, and two in the dalteparin sodium group. In addition, two bleeding events were recorded: one clinically relevant non-major bleed in the DD217 60 mg/day group and one clinically non-relevant minor bleed in the dalteparin sodium group.

Factor Xa = tested on: Factor Xa; parameters: method as in PMID 29468977; details: preclinical studies; cited from earlier work

In the case of CC(=N)N(C)c1ccc(C(=O)Nc2ccc(C)cc2C(=O)Nc2ccc(Cl)cn2)cc1.Cl [DD217, N-(5-chloropyridin-2-yl)-5-methyl-2-[4-(N-methylacetimidamido)benzamido]benzamide hydrochloride], the “With DVT/PE” value ([1]; ABCB1 rs1045642 C/C (n 5)) is reported as 3, the “Without DVT/PE” value ([1]; ABCB1 rs1045642 C/C (n 5)) is reported as 2 and the “With DVT/PE” value ([1]; ABCB1 rs1045642 T/C (n 7)) is reported as 1. The “Without DVT/PE” value ([1]; ABCB1 rs1045642 T/C (n 7)) was 6, the “With DVT/PE” value ([1]; ABCB1 rs1045642 T/T (n 4)) was 0 and the “Without DVT/PE” value ([1]; ABCB1 rs1045642 T/T (n 4)) was 4. The “With DVT/PE” value ([1]; ABCB1 rs1128503 C/C (n 8)) was 3, the “Without DVT/PE” value ([1]; ABCB1 rs1128503 C/C (n 8)) was 5 and the “With DVT/PE” value ([1]; ABCB1 rs1128503 C/T (n 6)) was 1. For the same compound, the “Without DVT/PE” value ([1]; ABCB1 rs1128503 C/T (n 6)) was 5, the “With DVT/PE” value ([1]; ABCB1 rs1128503 T/T (n 2)) was 0 and the “Without DVT/PE” value ([1]; ABCB1 rs1128503 T/T (n 2)) was 2. For the same compound, the “With DVT/PE” value ([1]; ABCB1 rs2032582 G/G (n 8)) was 3, the “Without DVT/PE” value ([1]; ABCB1 rs2032582 G/G (n 8)) was 5 and the “With DVT/PE” value ([1]; ABCB1 rs2032582 G/T (n 6)) was 1. For the same compound, the “Without DVT/PE” value ([1]; ABCB1 rs2032582 G/T (n 6)) was 5, the “With DVT/PE” value ([1]; ABCB1 rs2032582 T/T (n 2)) was 0 and the “Without DVT/PE” value ([1]; ABCB1 rs2032582 T/T (n 2)) was 2. The “With DVT/PE” value ([1]; ABCB1 rs4148738 C/C (n 2)) was 0, the “Without DVT/PE” value ([1]; ABCB1 rs4148738 C/C (n 2)) was 2 and the “With DVT/PE” value ([1]; ABCB1 rs4148738 T/C (n 6)) was 1. For the same compound, the “Without DVT/PE” value ([1]; ABCB1 rs4148738 T/C (n 6)) was 5, the “With DVT/PE” value ([1]; ABCB1 rs4148738 T/T (n 8)) was 3 and the “Without DVT/PE” value ([1]; ABCB1 rs4148738 T/T (n 8)) was 5. The “cases of DVT/PE” value ([1]; DD217 40 mg/day group (n = 16)) was “four”, the “PE/DVT, n (safety outcomes)” value ([1]; DD217 40 mg/day oral, of 16 patients) was 4 n and the “cases of DVT/PE” value ([1]; DD217 60 mg/day group (n = 18)) was “one”. For the same compound, the “PE/DVT, n (safety outcomes)” value ([1]; DD217 60 mg/day oral, of 18 patients) was 1 n and the “affinity for the active site of factor Xa” value (Factor Xa) was “high affinity”.
